We go through 13 compounds from paper PMC9945084, “Stimulation of natural killer cells with small molecule inhibitors of CD38 for the treatment of neuroblastoma” (Chemical Science, 2023).

Data set [1] has as its target T1, human recombinant CD38 (hydrolase activity) (Homo sapiens, UniProt P28907). The data set can be described thus: Human recombinant CD38 fluorometric enzyme assay, hydrolase activity (εNAD+). Conditions: for remaining activity at 50 µM: 50.0 μM compound, 10 nM recombinant CD38, 10 μM εNAD+; for IC50: recombinant CD38 enzyme assay; for decrease in potency relative to hit compound 1: CD38 hydrolase IC50 versus 1. The format is biochemical. The protocol:
Compounds were screened for inhibition against CD38 hydrolase activity in a human recombinant CD38 fluorometric assay. Recombinant CD38 was diluted in assay diluent (PBS, 0.02% Tween-20, pH 7.4) to a 4× working concentration (40 nM). Test compounds were diluted in assay diluent to a working concentration of 200 μM. Working CD38 (25.0 μL) and the 4× test compound (25.0 μL) were pipetted into a black 96-well microplate and incubated for 15 minutes at 25 °C on an orbital shaker. Following incubation, 20 μM εNAD^+ (50 μL) was pipetted into each well and fluorescence intensity was measured kinetically for 10 minutes (ex/em: 300/410 nm) using a Molecular Devices SpectraMax iD3 plate reader. Final concentrations of all components were: 10 nM recombinant CD38, 50 μM test compound (50 nM for control compound 3), and 10 μM εNAD^+. Means for data points at 1 minute 49 seconds were normalized to vehicle treated control. Values were expressed as percent remaining activity of CD38. Each assay was conducted in technical and experimental triplicate and compared to literature reported values of 14.

The subject of data set [2] is CD38 hydrolase activity. Conditions: cited from earlier work.
A further data set relates to CD38 cyclase activity. More on the design: method as in PMID 26864107. Conditions: cited from earlier work.
For data set [3], the system named is CD38 hydrolase activity. More on the design: method as in PMID 26864107. Conditions: cited from earlier work.
Data set [4] deals with Human PB NK cells (IFNγ secretion). Description: Quantitation of IFNγ secreted by PB NK cells, 24 h (Lumit IFNγ assay). The format is cell-based. The protocol:
In light of the substantial change in viability/proliferation of PB NK cells following treatment with 2, changes in the ability of treated NK cells to secrete IFNγ were measured.[60,61] Human PB NK cells (purity > 90%) were added to a 96-well plate at a confluency of 49 000 cells per well in Immunocult-XF T cell expansion medium supplemented with 500 IU mL^−1 IL-2, 10 ng mL^−1 IL-15, and 0.2 μL mL^−1 CD2/CD3/CD28 T cell activator. These cells were exposed to varying concentrations of 2 or 14 for 24 hours, followed by quantification of IFNγ using a Lumit IFNγ assay kit (W6040, Promega, Madison, WI). Treatment groups were normalized to vehicle-treated control and data was expressed as percent change in IFNγ. As often happens, we encountered a wide variability in the response of human primary cells from different donors. […] Despite the variability in the magnitude of the IFNγ response, the trend in all 3 donors was a dose-dependent increase for both 2 and 14. Decreases in IFNγ expression at higher doses of both compounds in donors 2 and 3 may be due to modest cytotoxicity.
Human PB NK cells were plated at 49 000 cells per well (60 μL per well) on a white, clear-bottom, 96-well microplate in Immunocult-XF T cell expansion medium supplemented with 1× penicillin/streptomycin, 500 IU mL^−1 IL-2, 10 ng mL^−1 IL-15, 0.2 μL mL^−1 CD2/CD3/CD28 T cell activator. Test compounds were dissolved in DMSO and diluted to a 4× working solution. Working test compound was added to the cells (20 μL) and the cells were incubated at 37 °C, 5% CO2 for 24 hours. The last 3 columns on the microplate were left empty for IFNγ standards. The provided human IFNγ standard (10 μg mL^−1) was diluted to 10 000 pg mL^−1 using cell culture medium. The 10 000 pg mL^−1 solution was serially diluted 3.33-fold for a total of 7 standard concentrations. The IFNγ standards were plated (80 μL) in the empty columns (in triplicate) following incubation. A 5× solution of both antibodies was prepared by combining the Lumit Anti-hIFN-γ-mAb-LgBiT (24 μL) and the Lumit Anti-hIFN-γ-mAb-SmBiT (24 μL) with cell culture medium (2.4 mL). The 5× antibody solution (20 μL) was pipetted into each well. The microplate was briefly mixed for 15 seconds on a shaker at 250 rpm and incubated for 90 minutes at 37 °C, 5% CO2. Following incubation, the microplate was allowed to rest at 25 °C for 15 minutes. The Lumit detection substrate (160 μL) was diluted with Lumit detection buffer B (3040 μL) and pipetted into each well (25 μL). The microplate was allowed to incubate for 5 minutes at 25 °C and then the luminescence was measured using a Molecular Devices SpectraMax iD3 plate reader. A standard curve with averaged RLU measurements of the IFNγ concentrations was determined with GraphPad Prism using 4-parameter logistic curve fitting. […]

The test system of data set [5] is donor 3 PB NK cells (IFNγ secretion). The data set can be described thus: 20 day treatment of PB NK cells, IFNγ in supernatant (Lumit IFNγ assay). In kind it is cell-based, human. Conditions: donor 3, fresh medium every 3 days, day 20. The protocol:
The TME has the ability to down regulate NK cell activation and function, therefore it is important to discern whether inhibition of CD38 hydrolase activity over an extended period will improve NK cell activation and support a persistent response.[62] To address this question, donor 3 PB NK cells were plated on a 12-well plate at a confluency of 1 × 10^6 cells mL^−1 in Immunocult-XF T cell expansion medium supplemented with 500 IU mL^−1 IL-2, 10 ng mL^−1 IL-15, and 0.2 μL mL^−1 CD2/CD3/CD28 T cell activator. Cells were treated with vehicle control, 2, or 14. Cells were treated with fresh medium every 3 days over the course of 20 days. Cells from each treatment group were counted on the 20th day of treatment and viability determined using trypan blue. NK cells treated with 2 or 14 were normalized to vehicle control with the percent change in viable cells presented as a function of the treatment condition (Fig. 8A). We observed 43 ± 6% more viable cells in the group treated with 14 and 36 ± 13% more viable cells in the group treated with 2, relative to vehicle control. Additionally, on the 20th day of treatment the cell supernatant was collected and analyzed for IFNγ using the Promega Lumit IFNγ assay. Treatment groups were normalized to vehicle control and the data presented as IFNγ % difference as a function of treatment (Fig. 8B). […]

For another data set, the system named is SHSY5Y-GFP NB cells. The data set can be described thus: SHSY5Y-GFP and PB NK cell co-culture assay with ch14.18-IL2. In kind it is cell-based, human. The protocol: Following optimization, SHSY5Y-GFP cells were plated at 25 000 cells per well and incubated for 24 hours. PB NK cells stained with cell tracker deep red were added to SHSY5Y-GFP cells with 50 ng mL^−1 ch14.18-IL2 and treated with 2, 14 or vehicle control. Cells were incubated for 90 minutes at 37 °C and imaged using a BioTek Cytation 5 at 20× (Fig. 11A–C). Live SHSY5Y-GFP cells were quantitated by measuring the integrated GFP fluorescence intensity. After only 90 minutes treatment with a 1.0 μM concentration of 2 and 50 ng mL^−1 ch14.18-IL2a caused a 14 ± 3% decrease in SHSY5Y-GFP fluorescent area (Fig. 11B) relative to vehicle-treated control (Fig. 11A). […] Fig. 12 is a close-up view from a representative well showing the effects of 1 μM 2 combined with 50 ng mL^−1 ch14.18-IL2.
SHSY5Y-GFP NB cells were plated at a concentration of 25 000 cells per well (100 μL) for 12 hours on a black, clear-bottom, 96-well microplate. PB NK cells were washed with PBS and resuspended in 5 μM cell tracker deep red in RPMI 1640 without FBS for 30 minutes at 37 °C, 5% CO2. Following incubation, cells were washed with PBS and resuspended in RPMI 1640 supplemented with 10% FBS. Compounds were dissolved in DMSO and diluted to a 4 μM working solution with cell culture medium. […] The sum integration of GFP area was measured and normalized to vehicle-treated control. […]

The next data set concerns SHSY5Y-GFP cells. Description: Proliferative effect on SHSY5Y-GFP cells alone, 24 h imaging. In kind it is cell-based, human. Conditions: 1.0 μM, at both 20 000 and 30 000 cells per well. The protocol: SHSY5Y-GFP cells were plated at 20 000, 30 000, 40 000, and 50 000 cells per well with 6 test wells each. Cells were incubated for 24 hours and imaged with a BioTek Cytation 5 at 20× with 4 fields per well using brightfield and GFP channels. The data is presented as the sum of SHSY5Y-GFP cells in imaged fields as a function of cells per well (Fig. 9A). Optimal plating density was determined to be between 20 000 and 30 000 cells per well. Additionally, we wanted to rule out proliferative effects in SHSY5Y-GFP cells treated with 2. Cells were plated at 20 000 or 30 000 cells per well and treated with varying concentrations of 2 or vehicle control for 24 hours and imaged as described above. Data was then expressed as the sum of SHSY5Y-GFP cells in imaged fields as a function of the concentration of 2 (Fig. 9B).

Data set [6] deals with T1, human recombinant CD38 (hydrolase activity). Description: Human recombinant CD38 fluorometric enzyme assay, hydrolase activity (εNAD+). In kind it is biochemical. As to conditions: 25 μM compound.
The next data set concerns NAD+ levels. Set-up: method as in PMID 35497564. Conditions: cited from earlier work.

Values joined by “and” are separate entries in the source; they are usually repeats but may differ in a detail not shown here. Equal entries are not always repeated.

T1 sequence (P28907 whole entry): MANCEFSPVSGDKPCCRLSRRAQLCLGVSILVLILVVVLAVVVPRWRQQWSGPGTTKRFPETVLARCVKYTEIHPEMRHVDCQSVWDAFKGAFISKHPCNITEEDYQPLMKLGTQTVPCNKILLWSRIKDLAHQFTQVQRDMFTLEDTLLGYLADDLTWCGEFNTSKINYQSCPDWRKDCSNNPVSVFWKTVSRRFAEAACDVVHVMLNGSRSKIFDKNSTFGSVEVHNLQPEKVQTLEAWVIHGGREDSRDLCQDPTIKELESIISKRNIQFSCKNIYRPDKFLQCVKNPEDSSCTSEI

Turning to `CCc1ccc2c(C)nc(NC3=NC(C)(C)C=C(C)N3)nc2c1` [Compound 13], in data set [1], the remaining activity at 50 µM came out at 48.1 ± 6.8% and the IC50 turned out to be 22.4 ± 1.1 µM.

As for `CC1=CC(C)(C)N=C(Nc2nc(-c3ccccc3)c3cc(C)cc(C)c3n2)N1` [Compound 11], in data set [1], the remaining activity at 50 µM was determined as 49.1 ± 2.2%; the “decrease in potency relative to hit compound 1” value is reported as 5 fold; the IC50 was 23 µM and 23.8 µM.

`Cc1nc(NC2=NCCC(=O)N2)nc2ccccc12` [Compound 6]: the remaining activity at 50 µM in data set [1] stood at 66.8 ± 0.6%.

With `CC1=CC(C)(C)N=C(Nc2nc(C)c3cc(C)cc(C)c3n2)N1` [Compound 1], in data set [1], the remaining activity at 50 µM is 61.6 ± 2% and the IC50 turned out to be 4.2 ± 0.5 µM. Moreover, in the data set with CD38 hydrolase activity [2], the “mode of inhibition of CD38 hydrolase activity” value was “mixed inhibition”.

Regarding `CC1=NC(Nc2nc(C)c3cc(C)cc(C)c3n2)=NC(C)(C)C1` [Compound 12], in [1], the remaining activity at 50 µM amounted to 52 ± 9.6% and the “decrease in potency relative to hit compound 1” value is ~3 fold.

As to `Cc1cc(C)c2nc(Nc3nc(C)c(C)c(O)n3)nc(C)c2c1` [Compound 4], in data set [1], the remaining activity at 50 µM came out at 58.2 ± 1.4% and the IC50 came to 5.1 ± 0.9 µM.

daratumumab: the “effect on CD38 cyclase activity” value with CD38 cyclase activity is on record as “modest inhibitory activity”. Also, the “effect on CD38 hydrolase activity” value in the data set with CD38 hydrolase activity [3] is “enhances CD38 hydrolase activity”.

As for `CC1=CC(C)(C)N=C(Nc2nc(C)c3cccc(C)c3n2)N1` [Compound 3], in [1], the remaining activity at 50 µM is 41 ± 0.03%, the “decrease in potency relative to hit compound 1” value is listed as 2 fold and the IC50 amounted to 8.4 ± 0.7 µM.

With `Cc1nc(Nc2nc(CCC(C)C)cc(=O)[nH]2)nc2ccccc12` [Compound 7], in data set [1], the remaining activity at 50 µM was 60.3 ± 0.7% and the IC50 is 4 ± 0.9 µM.

`CCOc1ccc2nc(Nc3nc(=O)c(Cc4ccccc4)c(C)[nH]3)nc(C)c2c1` [Compound 5]: in data set [1], the remaining activity at 50 µM amounted to 57 ± 0.3%; the “decrease in potency relative to hit compound 1” value turned out to be 2 fold; the IC50 is 8 µM and 8.3 µM.

Turning to `COc1cc(C)cc2c(C)nc(NC3=NC(C)(C)C=C(C)N3)nc12` [Compound 2, 8-Methoxy-4,6-dimethyl-N-(4,4,6-trimethyl-1,4-dihydropyrimidin-2-yl)quinazolin-2-amine], the IC50 in data set [1] is 1.9 ± 0.1 µM. Besides, the “increase in IFNγ, donor 1” value in data set [4] (donor 1, 1.0 μM) was found to be 759 ± 45%. The “increase in IFNγ, donor 2” value in data set [4] (donor 2, 0.111 μM) is 100 ± 29%. Further, in [4] (donor 3, 0.037 μM), the “increase in IFNγ, donor 3” value is recorded as 18 ± 2%. The “more IFNγ secreted relative to vehicle control” value in data set [5] came to 20 ± 1%. Also, in the data set with SHSY5Y-GFP NB cells (1.0 μM + 50 ng mL−1 ch14.18-IL2, 90 minutes, effector : target 1 : 1), the “decrease in SHSY5Y-GFP fluorescent area relative to vehicle-treated control” value was 14% and 14 ± 3%. Besides, the “cell number difference between vehicle-treated and treated SHSY5Y-GFP cells” value with SHSY5Y-GFP cells is < 4%. For the same compound, the remaining activity at 25 µM in data set [6] amounted to 5.6 ± 0.8%. In addition, the “change in NAD+ levels” value in the data set on NAD+ levels is “significant increases”.

For `Cc1nc(NC2=NCN(CCN3CCOCC3)CN2)nc2c(C)cccc12` [Compound 9], the remaining activity at 25 µM in data set [6] was 65.3 ± 0.6%.

As to `COCCO[C@H]1CC[C@H](Nc2cc(=O)n(C)c3ccc(-c4cncs4)cc23)CC1` [Compound 14, reference compound], the remaining activity at 0.05 µM in data set [1] (positive control 14, used at 50.0 nM according to b14 and b58) was 60.3 ± 1.8%. In data set [1], the IC50 turned out to be 0.078 ± 0.03 µM. In addition, the “increases in IFNγ levels, in words” value in [4] (all 3 donors) is recorded as “similaer to the effects of 2”. Besides, the “more IFNγ secreted relative to vehicle control” value in [5] amounted to 23 ± 2%. Besides, the “difference in SHSY5Y-GFP cells versus vehicle-treated control, in words” value with SHSY5Y-GFP NB cells (1 μM + 50 ng mL−1 ch14.18-IL2, 90 minutes) was “not a statistically significant difference”. For the same compound, the “mode of inhibition of CD38” value in the data set on CD38 hydrolase activity [2] is given as “mixed inhibition”. Also, in the data set with NAD+ levels, the “change in NAD+ levels” value is “significant increases”.
